Laboratory results published in patent EP0490590A1, “New benzodiazepine analogs” (MERCK & CO. INC., priority 1990, dated 1992).

Legend:
CCK receptor (pancreas) = target: T1, CCK receptor (pancreas) (Rattus norvegicus, UniProt P30551); assay: CCK Receptor Binding (Pancreas), 125I-CCK-33; conditions: inhibition of 125I-CCK-33 binding, rat pancreas membranes, 37°C, 30 minutes
T1 construct: The whole pancreas was dissected free of fat tissue and was homogenized; from tissue; host or cells: rat whole pancreas membrane homogenate
T1 sequence (P30551 1-444): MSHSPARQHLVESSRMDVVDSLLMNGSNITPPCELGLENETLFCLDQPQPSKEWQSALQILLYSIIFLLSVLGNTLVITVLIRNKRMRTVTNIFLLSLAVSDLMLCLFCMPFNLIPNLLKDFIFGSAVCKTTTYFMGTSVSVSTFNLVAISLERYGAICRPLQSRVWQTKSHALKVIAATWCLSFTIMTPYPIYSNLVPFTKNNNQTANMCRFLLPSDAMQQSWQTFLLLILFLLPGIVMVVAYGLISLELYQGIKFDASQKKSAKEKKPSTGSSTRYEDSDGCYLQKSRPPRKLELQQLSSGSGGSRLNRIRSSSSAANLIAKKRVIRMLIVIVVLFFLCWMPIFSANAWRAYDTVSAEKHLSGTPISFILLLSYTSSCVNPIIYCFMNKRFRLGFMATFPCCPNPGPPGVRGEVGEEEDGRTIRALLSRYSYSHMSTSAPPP
Description: 1. CCK Receptor Binding (Pancreas)
CCK-33 was radiolabeled with ¹²⁵I-Bolton Hunter reagent (2000 Ci/mmole) as described by Sankara et al. (J. Biol. Chem. 254: 9349-9351, 1979). Receptor binding was performed according to Innis and Snyder (Proc. Natl. Acad. Sci. 77, 6917-6921, 1980) with the minor modification of adding the additional protease inhibitors, phenylmethane sulfonyl fluoride and o-phenanthroline. The latter two compounds have no effect on the ¹²⁵I-CCK receptor binding assay.
Male Sprague-Dawley rats (200-350g) were sacrificed by decapitation. The whole pancreas was dissected free of fat tissue and was homogenized in 20 volumes of ice-cold 50 mM, Tris HCl (pH 7.7 at 25°C) with a Brinkmann Polytron PT 10. The homogenates were centrifuged at 48,000 g for 10 min. Pellets were resuspended in Tris Buffer, centrifuged as above and resuspended in 200 volumes of binding assay buffer (50 mM Tris HCl, pH 7.7 at 25°C, 5 mM dithiothrietol, 0.1 mM bacitracin, 1.2 mM phenylmethane sulfonyl fluoride and 0.5 mM o-phenanthroline). […] The supernatant was aspirated and discarded, pellets were counted with a Beckman gamma 5000. […]

[1] = target: T2, CCK receptor (brain, cerebral cortex) (Cavia porcellus, UniProt H0VZC5); assay: CCK Receptor Binding (Brain), 125I-CCK-33; conditions: inhibition of 125I-CCK-33 binding, guinea pig cerebral cortex membranes, 25°C, 2 hours
T2 construct: Cerebral cortex was dissected and used as a receptor source; from tissue; host or cells: guinea pig cerebral cortex membranes
T2 sequence (H0VZC5 entry or part of it): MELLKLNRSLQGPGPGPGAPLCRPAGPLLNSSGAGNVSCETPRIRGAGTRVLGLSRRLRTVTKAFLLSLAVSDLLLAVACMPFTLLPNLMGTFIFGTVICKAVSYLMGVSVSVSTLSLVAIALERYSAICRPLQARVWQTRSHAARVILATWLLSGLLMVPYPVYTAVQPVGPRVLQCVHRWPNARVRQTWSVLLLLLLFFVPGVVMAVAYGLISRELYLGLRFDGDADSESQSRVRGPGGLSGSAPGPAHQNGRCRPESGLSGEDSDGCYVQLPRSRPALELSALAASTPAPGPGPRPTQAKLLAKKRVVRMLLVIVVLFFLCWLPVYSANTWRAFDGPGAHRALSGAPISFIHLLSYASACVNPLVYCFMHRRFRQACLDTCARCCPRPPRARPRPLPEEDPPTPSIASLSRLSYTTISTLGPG
Description: 2. CCK Receptor Binding (Brain)
CCK-33 was radiolabeled and the binding was performed according to the description for the pancreas method with modifications according to Saito et al., J. Neurochem. 37:483-490, 1981.
Male Hartley guinea pigs (300-500g) were sacrificed by decapitation and the brains were removed and placed in ice-cold 50 mM, Tris HCl plus 7.58 g/l Trizma-7.4 (ph 7.4 at 25°C). Cerebral cortex was dissected and used as a receptor source. Each gram of fresh guinea pig brain tissue was homogenized in 10 ml of Tris/Trizma buffer with a Brinkman polytron PT-10. The homogenates were centrifuged at 42,000 g for 15 minutes. Pellets were resuspended in Tris Buffer, centrifuged as above and resuspended in 200 volumes of binding assay buffer (10 mM N-2-hydroxyethyl-piperazine-N′-2-ethane sulfonic acid (HEPES), 5 mM MgCl₂, 0.25 mg/ml bacitracin, 1 mM ethylene glycol-bis-(β-aminoethylether-N,N′-tetraacetic acid) (EGTA), and 0.4% bovine serum albumin (BSA)). […] The supernatant was aspirated and discarded, pellets were counted with a Beckman gamma 5000.

Question: `CN1C(=O)C(NC(=O)c2cc3cc(O)ccc3[nH]2)N=C(c2ccccc2)c2ccccc21` (centres unmarked) [Example 15, 1,3-Dihydro-3-(5-hydroxyindole-2-carbonylamino)-1-methyl-5-phenyl-2H-1,4-benzodiazepin-2-one] was tested. Which IC50 (CCK receptor (pancreas)) did it give?
Answer: Its IC50 is 0.0033 µM.

Question: And the IC50 [1]?
Answer: Its IC50 is 0.91 µM.
